Laboratory results from US20190315823A1, “SMALL CATIONIC ANTI-BIOFILM AND IDR PEPTIDES” (priority 2013, published 2019).
Ends that are not written are not given here.

What was measured:
[1] = tested on: methicillin resistant Staphylococcus aureus (MRSA) biofilm; details: approximate peptide concentration […] (around 3 μg/ml); compared to untreated samples
Outline: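 Peptide was present from inoculation onward, with bacteria seeded at 1/100 from overnight cultures into BM2 biofilm medium or Luria Broth. Crystal violet staining of surface-attached cells (A595) quantified biofilm reduction at 22–46 h. K. pneumoniae was additionally screened in a real-time Bioflux flow device for some peptides.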

[2] = tested on: human peripheral blood mononuclear cells (MCP-1); assay: SPOT-synthesized derivative screen: production of chemokine MCP-1; format: cell-based; details: Table 12, No LPS, human PBMC, peptide at ~18-24 μM; for MCP1: background subtracted 139 (HH2 derivatives), 170 (1018 derivatives), 242 (1002 and hybrid peptides) pg/ml
Outline: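 MCP-1 was quantified by capture ELISA in cleared culture supernatants of treated human peripheral blood mononuclear cells. Cells came from heparinized volunteer blood via Ficoll gradient and were seeded at 0.75 to 1×10^6 cells/ml (37 °C, 5% CO2).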

[3] = tested on: LPS-stimulated human peripheral blood mononuclear cells (IL1-β); format: cell-based; details: Table 12, cells stimulated with 10 ng/ml LPS; for IL1β Production: LPS alone 1313 (HH2 derivatives), 1927 (1018 derivatives), 2455 (1002 and hybrid peptides) pg/ml

Substance | % Biofilm inhibition [1] [%] | Fold increase in MCP1 cf. untreated cells [2] | MCP1 [2] [pg/mL] | Fold change in IL1β relative to no peptide LPS stimulated cells [3] | IL1β Production [3] [pg/mL]
1002-K10: single substituted 1002 peptide (VQRWLIVWRKRK-NH2) [Peptide 1002-K10] | 0 | 0.9 | -32.5 | 0.05 | 127
HH2-W8: single substituted HH2 peptide (VQLRIRVWVIRA-NH2) | 75 | 81 | 13556 | 0.42 | 553
1002-V6: single substituted 1002 peptide (VQRWLVVWRIRK-NH2) [Peptide 1002-V6] | 71 | 1.5 | 113.5 | 0.05 | 127
1018-R9: single substituted 1018 peptide (VRLIVAVRRWRR-NH2) [Peptide 1018-R9] | 59 | 0.9 | -10 | 0.24 | 310
1002-A12: single substituted 1002 peptide (VQRWLIVWRIRA-NH2) [Peptide 1002-A12] | 37 | 1.4 | 91.3 | 0.05 | 127
HH2-L11: single substituted HH2 peptide (VQLRIRVAVILA-NH2) | 47 | 40 | 6545 | 1.09 | 1425
HH2-Q4: single substituted HH2 peptide (VQLQIRVAVIRA-NH2) | 45 | 2.4 | 246 | 0.62 | 817
HH2-K8: single substituted HH2 peptide (VQLRIRVKVIRA-NH2) | 73 | 9.8 | 1501 | 0.65 | 851
HH2-A9: single substituted HH2 peptide (VQLRIRVAAIRA-NH2) | 51 | 1.9 | 157 | 1.46 | 1923
1002-L6: single substituted 1002 peptide (VQRWLLVWRIRK-NH2) [Peptide 1002-L6] | 52 | 1.3 | 68.0 | 0.05 | 127
HH2-V10: single substituted HH2 peptide (VQLRIRVAVVRA-NH2) | 68 | 36 | 5929 | 1.06 | 1390
1018-G2: single substituted 1018 peptide (VGLIVAVRIWRR-NH2) [Peptide 1018-G2] | 59 | 2.6 | 267 | 0.10 | 127
HH2-L6: single substituted HH2 peptide (VQLRILVAVIRA-NH2) | 18 | 1.8 | 138 | 0.69 | 901
HH2-Q12: single substituted HH2 peptide (VQLRIRVAVIRQ-NH2) | 72 | 13 | 2034 | 0.73 | 965
HH2-I2: single substituted HH2 peptide (VILRIRVAVIRA-NH2) | 54 | 11 | 1748 | 0.81 | 1060
HH2-G3: single substituted HH2 peptide (VQGRIRVAVIRA-NH2) | 21 | 1.7 | 117 | 1.29 | 1687

Substance | % Biofilm inhibition [1] [%] | Fold increase in MCP1 cf. untreated cells [2] | MCP1 [2] [pg/mL] | Fold change in IL1β relative to no peptide LPS stimulated cells [3] | IL1β Production [3] [pg/mL]
HH2-W5: single substituted HH2 peptide (VQLRWRVAVIRA-NH2) | 63 | 14 | 2198 | 0.77 | 1007
1018-L12: single substituted 1018 peptide (VRLIVAVRIWRL-NH2) [Peptide 1018-L12] | 44 | 1.2 | 29 | 0.17 | 220
1002-V4: single substituted 1002 peptide (VQRVLIVWRIRK-NH2) [Peptide 1002-V4] | 69 | 10.5 | 2300.2 | 0.08 | 190
1002-A8: single substituted 1002 peptide (VQRWLIVARIRK-NH2) [Peptide 1002-A8] | 52 | 0.9 | -36.2 | 0.09 | 219
1002-I5: single substituted 1002 peptide (VQRWIIVWRIRK-NH2) [Peptide 1002-I5] | 84 | 24.2 | 5633.1 | 0.08 | 186
1002-A1: single substituted 1002 peptide (AQRWLIVWRIRK-NH2) [Peptide 1002-A1] | 55 | 19.8 | 4559.2 | 0.05 | 127
1018-Q3: single substituted 1018 peptide (VRQIVAVRIWRR-NH2) [Peptide 1018-Q3] | 12 | 1.0 | -2 | 1.03 | 1359
1018-L2: single substituted 1018 peptide (VLLIVAVRIWRR-NH2) [Peptide 1018-L2] | 61 | 0.8 | -35 | 0.32 | 426
1018-L5: single substituted 1018 peptide (VRLILAVRIWRR-NH2) [Peptide 1018-L5] | 71 | 3.0 | 335 | 0.12 | 162
HH2-L4: single substituted HH2 peptide (VQLLIRVAVIRA-NH2) | 54 | 18 | 2884 | 0.61 | 800
1018-I2: single substituted 1018 peptide (VILIVAVRIWRR-NH2) [Peptide 1018-I2] | 61 | 44 | 7342 | 0.42 | 557
1002-Q1: single substituted 1002 peptide (QQRWLIVWRIRK-NH2) [Peptide 1002-Q1] | 77 | 6.9 | 1423.5 | 0.05 | 127
1002-L12: single substituted 1002 peptide (VQRWLIVWRIRL-NH2) [Peptide 1002-L12] | 64 | 4.7 | 905.7 | 0.05 | 127
1002-I7: single substituted 1002 peptide (VQRWLIIWRIRK-NH2) [Peptide 1002-I7] | 73 | 3.3 | 557.5 | 0.05 | 127
HH2-Q6: single substituted HH2 peptide (VQLRIQVAVIRA-NH2) | 35 | 191 | 32306 | 0.83 | 1088
